# Data: ChEMBL document CHEMBL5244272 (Eur J Med Chem, 2021)
# Tests used:
# Format in all cases: functional, organism-based
# Plasmodium falciparum [1] = experiment: Antimalarial activity against Plasmodium falciparum 3D7
# Plasmodium falciparum [2] = experiment: Antimalarial activity against Plasmodium falciparum K1; conditions: for EC50: read-out: EC50
# Plasmodium falciparum [3] = experiment: Antimalarial activity against Plasmodium falciparum D6
smiles,measurement,setting,value
C[C@@H]1CC[C@H]2[C@@H](C)C(=O)N(C(=O)Cc3ccc([N+](=O)[O-])cc3)[C@@H]3O[C@]4(C)CC[C@@H]1[C@@]23OO4,IC50,Plasmodium falciparum [1],0.6 ng/mL
same,IC50,Plasmodium falciparum [2],0.4 ng/mL
CCCCCCCCS(=O)(=O)N1C(=O)[C@H](C)[C@@H]2CC[C@@H](C)[C@@H]3CC[C@]4(C)OO[C@]32[C@H]1O4,IC50,Plasmodium falciparum [1],2.1 ng/mL
same,IC50,Plasmodium falciparum [2],1.1 ng/mL
C[C@@H]1CC[C@H]2[C@@H](C)C(=O)N(C(=O)c3ccc([N+](=O)[O-])cc3)[C@@H]3O[C@]4(C)CC[C@@H]1[C@@]23OO4,IC50,Plasmodium falciparum [1],0.45 ng/mL
same,IC50,Plasmodium falciparum [2],0.6 ng/mL
C[C@@H]1CC[C@H]2[C@H](C[C@@]3(CCCCCCCC4C(=O)O[C@@H]5O[C@]6(C)CC[C@H]7[C@H](C)CC[C@@H]4[C@@]57OO6)C(=O)O[C@@H]4O[C@]5(C)CC[C@H]6[C@H](C)CC[C@@H]3[C@@]46OO5)C(=O)O[C@@H]3O[C@]4(C)CC[C@@H]1[C@]32OO4 (stereo not given in full),EC50,Plasmodium falciparum [2],3.1 nM
CS(=O)(=O)N1CCN(CCOc2ccc(C3CCC4(CC3)OOC3(OO4)C4CC5CC(C4)CC3C5)cc2)CC1 (stereo not given),IC50,Plasmodium falciparum [1],3.5 nM
C=C(c1ccc(F)cc1F)C1COC2(OO1)C1CC3CC(C1)CC2C3 (stereo not given),IC50,Plasmodium falciparum [1],25.7 nM
c1cc(C2CCC3(CC2)OOC2(OO3)C3CC4CC(C3)CC2C4)ccc1OCCNC1CCOCC1 (stereo not given),IC50,Plasmodium falciparum [1],0.5 nM
C[C@@H]1CC[C@H]2[C@H](C[C@@]3(CCCCCC[C@]4(C[C@@H]5C(=O)O[C@@H]6O[C@]7(C)CC[C@H]8[C@H](C)CC[C@@H]5[C@@]68OO7)C(=O)O[C@@H]5O[C@]6(C)CC[C@H]7[C@H](C)CC[C@@H]4[C@@]57OO6)C(=O)O[C@@H]4O[C@]5(C)CC[C@H]6[C@H](C)CC[C@@H]3[C@@]46OO5)C(=O)O[C@@H]3O[C@]4(C)CC[C@@H]1[C@]32OO4,EC50,Plasmodium falciparum [2],20 nM
C[C@@H]1CC[C@H]2[C@@H](C)C(=O)N(C(=O)c3cccc([N+](=O)[O-])c3)[C@@H]3O[C@]4(C)CC[C@@H]1[C@@]23OO4,IC50,Plasmodium falciparum [1],0.46 ng/mL
same,IC50,Plasmodium falciparum [2],0.6 ng/mL
CCCCNC(=O)CCC(C)[C@H]1CCC2C3C(C[C@H](OC(C)=O)[C@@]21C)[C@@]1(C)CC[C@]2(C[C@@H]1C[C@H]3OC(C)=O)OO[C@@]1(CC[C@]3(C)C4C[C@H](OC(C)=O)[C@@]5(C)C(CC[C@@H]5C(C)CCC(=O)NCCCC)C4[C@H](OC(C)=O)C[C@H]3C1)OO2 (stereo not given in full),IC50,Plasmodium falciparum [3],20.1 nM
C[C@@H]1CC[C@H]2[C@@H](C)C(=O)N(S(=O)(=O)c3ccc4ccccc4c3)[C@@H]3O[C@]4(C)CC[C@@H]1[C@@]23OO4,IC50,Plasmodium falciparum [1],2.8 ng/mL
same,IC50,Plasmodium falciparum [2],0.2 ng/mL
COC(=O)CC[C@@H](C)[C@H]1CCC2C3CC[C@@H]4CC5(CC[C@]4(C)C3C[C@H](OC(C)=O)[C@@]21C)OOC(C)(C)OO5 (stereo not given in full),IC50,Plasmodium falciparum [2],3 nM
CS(=O)(=O)N1CCN(CCCOc2ccc(C3CCC4(CC3)OOC3(OO4)C4CC5CC(C4)CC3C5)cc2)CC1 (stereo not given),IC50,Plasmodium falciparum [1],3.7 nM
C[C@@H]1CC[C@H]2[C@@H](C)C(=O)N(S(=O)(=O)c3cccc4cccnc34)[C@@H]3O[C@]4(C)CC[C@@H]1[C@@]23OO4,IC50,Plasmodium falciparum [1],1.9 ng/mL
same,IC50,Plasmodium falciparum [2],2 ng/mL
COC(=O)CC[C@@H](C)[C@H]1CCC2C3CC[C@@H]4CC5(CC[C@]4(C)C3C[C@H](OC(C)=O)[C@@]21C)OOC(C)(C(F)(F)F)OO5 (stereo not given in full),IC50,Plasmodium falciparum [2],7.6 nM
COC(=O)Nc1nc2cc(C(=O)c3ccccc3)ccc2n1C(=O)O[C@H]1O[C@@H]2O[C@]3(C)CC[C@H]4[C@H](C)CC[C@@H]([C@H]1C)[C@@]24OO3,IC50,Plasmodium falciparum [1],6.86 nM
C[C@@H]1CC[C@H]2[C@@H](C)C(=O)N(S(=O)(=O)c3cccc([N+](=O)[O-])c3)[C@@H]3O[C@]4(C)CC[C@@H]1[C@@]23OO4,IC50,Plasmodium falciparum [1],2.1 ng/mL
same,IC50,Plasmodium falciparum [2],2.2 ng/mL
C[C@@H]1CC[C@H]2[C@H](C[C@@]3(CCCCCCC[C@]4(C[C@@H]5C(=O)O[C@@H]6O[C@]7(C)CC[C@H]8[C@H](C)CC[C@@H]5[C@@]68OO7)C(=O)O[C@@H]5O[C@]6(C)CC[C@H]7[C@H](C)CC[C@@H]4[C@@]57OO6)C(=O)O[C@@H]4O[C@]5(C)CC[C@H]6[C@H](C)CC[C@@H]3[C@@]46OO5)C(=O)O[C@@H]3O[C@]4(C)CC[C@@H]1[C@]32OO4,EC50,Plasmodium falciparum [2],5.8 nM
